Biological target: T1, S-COMT enzyme (Homo sapiens, UniProt P21964)
T1 sequence (P21964 1-221 isoform P21964-2): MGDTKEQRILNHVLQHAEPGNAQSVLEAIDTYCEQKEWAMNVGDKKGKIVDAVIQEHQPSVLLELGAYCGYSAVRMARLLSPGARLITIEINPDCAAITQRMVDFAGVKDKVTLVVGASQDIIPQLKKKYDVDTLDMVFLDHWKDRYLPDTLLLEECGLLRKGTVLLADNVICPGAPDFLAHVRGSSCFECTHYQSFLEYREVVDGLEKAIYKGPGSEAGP
Experiment: Determination of COMT activity (IC50)
Assay type: biochemical
Conditions: S-COMT about 30 nM, 3 mM dopamine substrate, 0.05 mM AdoMet, 5 mM MgCl2, pH 7.4, 37° C., 15 min; HPLC
Protocol: EXPERIMENT I: Determination of COMT activity (IC50)
The determination of IC50 was performed by measuring the COMT activity in a test sample which contained S-COMT enzyme (about 30 nM), 3 mM dopamine (as the substrate of COMT), 5 mM magnesium chloride, 0.05 mM S-adenosyl-L-methionine (AdoMet) and a test compound of the invention at various concentrations in 0.1 M phosphate buffer, pH 7.4, at 37° C.
The reaction in the test sample was initiated by adding the dopamine substrate to the sample mixture and, after incubation for 15 min at 37° C., the reaction was stopped with 4 M perchloric acid and stabilized further 10 min in ice bath. Thereafter the precipitated proteins were removed by centrifugation (4000×G for 10 min). The activity of COMT enzyme was measured by determining the concentration of the reaction products, 3-methyldopamine and 4-methyldopamine, by HPLC. The results were calibrated with 3-methyldopamine standards. See also T. Lotta et al., Biochemistry, vol.34(13), 1995, p.4204. The IC50 value is the concentration of the test compound which causes a 50% decrease in COMT activity.

SMILES | IC50
O=[N+]([O-])c1c(O)c(O)cc2ccccc12 [Example 1, 1-Nitronaphthalene-2,3-diol] | 30 nM
O=C(c1ccccc1)c1ccc2c([N+](=O)[O-])c(O)c(O)cc2c1 [Example 3, (6,7-Dihydroxy-5-nitro-naphthalen-2-yl)-phenyl-methanone] | 80 nM
CC(C)C(=O)c1ccc2c([N+](=O)[O-])c(O)c(O)cc2c1 [Example 4, 1-(6,7-Dihydroxy-5-nitro-naphthalen-2-yl)-2-methyl-propan-1-one] | 25 nM
CC(C)Cc1ccc2c([N+](=O)[O-])c(O)c(O)cc2c1 [Example 5, 6-Isobutyl-1-nitro-naphthalene-2,3-diol] | 45 nM
O=C(O)c1ccc2c([N+](=O)[O-])c(O)c(O)cc2c1 [Example 7, 6,7-Dihydroxy-5-nitro-naphthalene-2-carboxylic Acid] | 30 nM
O=Cc1c(O)c(O)cc2ccccc12 [Example 8, 2,3-Dihydroxy-naphthalene-1-carbaldehyde] | 200 nM
CCCCCCC(=O)c1ccc2c([N+](=O)[O-])c(O)c(O)cc2c1 [Example 9, 1-(6,7-Dihydroxy-5-nitro-naphthalen-2-yl)-heptan-1-one] | 80 nM
O=[N+]([O-])c1ccc2c([N+](=O)[O-])c(O)c(O)cc2c1 [Example 10, 1,6-Dinitro-naphthalene-2,3-diol] | 15 nM
CCCN(CCC)S(=O)(=O)c1ccc2c([N+](=O)[O-])c(O)c(O)cc2c1 [Example 11, 6,7-Dihydroxy-5-nitro-naphthalene-2-sulfonic Acid Dipropylamide] | 25 nM
N#Cc1c(O)c(O)cc2ccccc12 [Example 13, 2,3-Dihydroxy-naphthalene-1-carbonitrile] | 100 nM
CN1CCN(C(=O)c2ccc3c([N+](=O)[O-])c(O)c(O)cc3c2)CC1 [Example 14, (6,7-Dihydroxy-5-nitro-naphthalen-2-yl)-(4-methyl-piperazin-1-yl)-methanone] | 15 nM
O=[N+]([O-])c1c(O)c(O)c(Br)c2ccncc12 [Example 15, 5-Bromo-6,7-dihydroxy-8-nitro-isoquinolinium; Bromide] | 140 nM
